# According to ChEMBL document CHEMBL1158011, “Five new flavone 5-O-glycosides from Lethedon tannaensis: lethedosides and lethediosides” (J Nat Prod, 1999):
# Test system: KB
# Assay: Cytotoxicity against human KB cells after 72 hrs by neutral red assay
# Type: functional, cell-based
row,SMILES,IC50 [µg/mL]
1,COc1cc(O[C@@H]2O[C@H](CO)[C@@H](O)[C@H](O)[C@H]2O)c2c(=O)cc(-c3ccc(OC)c(OC)c3)oc2c1 [LETHEDOSIDE A],> 100
2,COc1cc(O)c2c(=O)cc(-c3ccc(O)c(OC)c3)oc2c1 [VELUTIN],1.5
3,COc1cc(O[C@@H]2O[C@H](CO[C@@H]3OC[C@@H](O)[C@H](O)[C@H]3O)[C@@H](O)[C@H](O)[C@H]2O)c2c(=O)cc(-c3ccc(OC)c(OC)c3)oc2c1 [LETHEDIOSIDE A],> 100
4,COc1cc(O[C@@H]2O[C@H](CO)[C@@H](O)[C@H](O)[C@H]2O)c2c(=O)cc(-c3cc(O)c(OC)c(OC)c3)oc2c1 [LETHEDOSIDE C],43
5,COc1cc(O[C@@H]2O[C@H](CO[C@@H]3OC[C@@H](O)[C@H](O)[C@H]3O)[C@@H](O)[C@H](O)[C@H]2O)c2c(=O)cc(-c3cc(OC)c(OC)c(OC)c3)oc2c1 [LETHEDIOSIDE B],32
6,COc1ccc(-c2cc(=O)c3c(O[C@@H]4O[C@H](CO[C@@H]5OC[C@@H](O)[C@H](O)[C@H]5O)[C@@H](O)[C@H](O)[C@H]4O)cc(OC)cc3o2)cc1,> 100
7,COc1cc(O[C@@H]2O[C@H](CO)[C@@H](O)[C@H](O)[C@H]2O)c2c(=O)cc(-c3cc(OC)c(OC)c(OC)c3)oc2c1 [LETHEDOSIDE B],37
